Results on one compound are retold here after ChEMBL document CHEMBL3886420, “Substituted pyrimidine compounds and their use as SYK inhibitors” (2015).

SMILES strings stand for the structures.

In the assay the target is Tyrosine-protein kinase SYK (Homo sapiens, UniProt P43405). Description: Inhibition Assay: Compounds of the invention were initially diluted to 10 mM in 100% DMSO (CALBIOCHEM) for storage and made into kinase buffer solution to create a compound concentration ranging from 1 uM and 10 uM. Serial dilutions of compounds of the invention were dispensed into a 96-well plate (GREINER BIOSCIENCES) at 6 uL each. Purified full-length human SYK (CARNA BIOSCIENCES) were diluted ….

The IC50 is the concentration that inhibits the measured activity by half. The low end stands for greater potency in that assay, the high end for weaker potency in that assay. Compound `CCOC(=O)n1cc(C(C)=O)c2cc(Nc3nccc(-n4cc(CN5C[C@H](O)CO5)c(C)n4)n3)ccc21` registered an IC50 of 45.6 nM.
